Measured values from patent US20130123206A1, “TREATMENT OF METABOLIC SYNDROME AND INSULIN RESISTANCE WITH CITRUS FLAVANONES” (priority 2010, published 2013).
Entries after “also recorded” stand apart in the source; their conditions may differ.

How the values were obtained:
[1] = test system: bovine aortic endothelial cells (BAEC); test: Immunoblotting of phospho-AMPK, phospho-Akt, phospho-eNOS and phospho-Src in BAEC; type: cell-based
Experimental: Bovine aortic endothelial cells (BAEC) in primary culture (Cell Applications, San Diego, Calif.) were grown in EBM (Endothelial Basal Medium) containing EGM-MV supplements (Endothelial Growth Medium-Micro Vascular; Cambrex, Walkersville, Md.) and used between passages 3 and 5 as previously described (Formoso et al., Mol Endocrinol, 20:1153-63, 2006). BAECs were grown in 60 mm dishes, serum-starved overnight, and then treated with hesperetin (10 μM) for varying durations or for 10 minutes at different concentrations. In some experiments, Wortmannin (100 nM), or Compound C (5 μM) was added to cells 1 hour before treating with hesperetin. Cell lysates were prepared using 120 μl of lysis buffer (100 mM NaCl, 20 mM Hepes, pH 7.9, 1% Triton X-100, 1 mM Na3VO4, 4 mM sodium pyrophosphate, 10 mM EDTA, 1 mM phenylmethylsulfonyl fluoride, 10 mM NaF, and complete protease inhibitor cocktail (Roche Applied Sciences, Indianapolis, Ind.)). After centrifugation of samples at 17,000×g for 5 minutes at 4° C., supernatants were boiled with Laemmli sample buffer for 5 minutes and proteins (50 μg total protein) were resolved by 10% SDS-PAGE, transferred to nitrocellulose membranes, and immunoblotted using antibodies against eNOS (Transduction Laboratories), phospho-eNOS ([…]), Akt, phospho-Akt ([…]), AMPK, phospho-AMPK ([…]), Src ([…]) (Cell Signaling Technology), VCAM-1 (Santa Cruz, Calif.) or β-actin (Sigma) according to standard methods. Immunoblots were quantified by scanning densitometry (GE Healthcare).

[2] = test system: bovine aortic endothelial cells (BAEC); test: Measurement of H2O2/ROS production (CM-H2DCF-DA fluorescence); type: cell-based; conditions: for production of ROS in BAEC: 10 μM, 10 minutes
Experimental: Briefly, BAECs were plated on chamber slides and incubated overnight in media free of phenol red, serum, and growth factors. Cells were then washed with Dulbecco's phosphate buffered saline containing calcium and magnesium (DPBS) before each experiment. Cells were loaded with CM-H2DCF-DA (5 μM, 20 minutes, 37° C.) and then washed to remove excess CM-H2DCF-DA. Cells were then treated with H2O2, hesperetin, or naringenin as indicated in the legends to figures followed by washing three times with DPBS. Some groups of cells were pre-treated with N-acetylcysteine (NAC) (10 mM, 2 hours). Cells were then visualized and images were captured as described for measurement of NO production.

[3] = test system: bovine aortic endothelial cells (BAEC); test: Evaluation of NO production in fixed cells (DAF-2 DA fluorescence); type: cell-based; conditions: for NO production in response to hesperetin after inhibitor pre-treatment: 10 min; for NO production in response to hesperetin after inhibitor pre-treatment / NO production in response to insulin after inhibitor pre-treatment: inhibitor added 30 min before DAF-2 DA loading; for NO production in response to insulin after inhibitor pre-treatment: insulin 100 nM, 5 min
Experimental: Bovine aortic endothelial cells (BAEC) in primary culture (Cell Applications, San Diego, Calif.) were grown in EBM (Endothelial Basal Medium) containing EGM-MV supplements (Endothelial Growth Medium-Micro Vascular; Cambrex, Walkersville, Md.) and used between passages 3 and 5 as previously described (Formoso et al., Mol Endocrinol, 20:1153-63, 2006). […] Biol. Chem. 282:13736-45, 2007; Formoso et al., Mol. Endocrinol. 20:1153-63, 2006). Briefly, BAECs were grown to 95% confluence in Lab-Tek™ chamber slides (Rochester, N.Y.) and then serum-starved overnight in phenol red-free EBM supplemented with L-arginine (100 μM). BAECs were loaded with DAF-2 DA (3 μM) for 20 minutes at 37° C. […] After loading with DAF-2 DA for 20 minutes, cells were washed with EBM at 37° C. and kept in the dark. Next, BAECs were treated with insulin (100 nM, 5 minutes), lysophosphatidic acid (LPA; 5 μM, 5 minutes), or hesperetin (10 μM, 10 minutes; Sigma). After treatment, cells were fixed in 4% paraformaldehyde (vol/vol) for 5 minutes at 4° C. Fixed cells were visualized using an Olympus IX81 inverted microscope with attached CCD camera (Retiga Exi, Burnaby, BC, Canada) using appropriate filters with a peak excitation wavelength of 480 nm and a peak emission wavelength of 510 nm. Images were captured using IPLab™ Software (Scanalytics, Inc., Fairfax, Va.).

[4] = test system: VCAM-1 expression in BAEC; test: TNF-α-stimulated VCAM-1 expression by immunoblotting; type: cell-based, bovine; conditions: 5 hours
Experimental: FIG. 5A is a digital image showing vascular cell adhesion molecule-1 (VCAM-1) expression by immunoblotting. BAECs were serum-starved overnight and then treated without or with TNF-α (10 ng/ml, 5 hours). In some groups, cells were pre-treated with hesperetin (10 μM, 1 hour) prior to treatment with TNF-α. Cell lysates were immunoblotted using antibodies against VCAM-1 or β-actin. Representative immunoblots are shown for experiments that were repeated independently four times. BAECs were grown in 60 mm dishes, serum-starved overnight, and then treated with hesperetin (10 μM) for varying durations or for 10 minutes at different concentrations. In some experiments, Wortmannin (100 nM), or Compound C (5 μM) was added to cells 1 hour before treating with hesperetin. Cell lysates were prepared using 120 μl of lysis buffer (100 mM NaCl, 20 mM Hepes, pH 7.9, 1% Triton X-100, 1 mM Na3VO4, 4 mM sodium pyrophosphate, 10 mM EDTA, 1 mM phenylmethylsulfonyl fluoride, 10 mM NaF, and complete protease inhibitor cocktail (Roche Applied Sciences, Indianapolis, Ind.)). […] Immunoblots were quantified by scanning densitometry (GE Healthcare).

[5] = test system: U937 monocytes adhering to BAECs; test: Monocyte adhesion assay; type: cell-based, bovine; conditions: 5 hours
Experimental: BAECs were cultured in 6-well plates and then treated with TNF-α (10 ng/ml, 5 hours) or hesperetin (10 μM, 5 hours). In some experiments, hesperetin was added 1 hour before treating cells with TNF-α. U937 monocytes were grown in DMEM medium containing 10% FBS in a culture flask. U937 monocytes were labeled for 15 min with 5 μM calcein-AM (Molecular Probes, Inc.). Labeled U937 cells (6×10^5 cells) were then incubated for 30 minutes at 37° C. with confluent BAECs pre-treated with hesperetin and/or TNF-α. Co-cultured cells were washed three times with PBS and then images of monocytes adhering to BAECs were obtained with an Olympus IX81 inverted microscope with attached CCD camera (Retiga Exi, Burnaby, BC, Canada) using appropriate filters. Images were captured using IPLab™ Software (Scanalytics, Inc., Fairfax, Va.).

[6] = hesperetin 10 μM, 1 hour before TNF-α 10 ng/ml
[7] = BAEC serum-starved overnight, hesperetin 10 min at varying concentrations or 10 μM for varying durations

In the case of CC(=O)N[C@@H](CS)C(=O)O [N-acetylcysteine, reference compound], the “hesperetin and naringenin-stimulated phosphorylation of Src (Tyr418), Akt (Ser473), and eNOS (Ser1179) after NAC pre-treatment” value ([1]; NAC 10 mM, 2 hours, flavanone 10 μM, 10 min) is reported as “inhibited” and the “production of ROS after NAC pre-treatment” value ([2]; NAC 10 mM, 2 hours before loading) is reported as “scavenged”.

With COC(=O)[C@@H](N)CCCNC(=N)N[N+](=O)[O-] [L-NAME, L-N^G-Nitroarginine methyl ester] the “NO production in response to hesperetin after inhibitor pre-treatment” value ([3]; hesperetin 10 μM) was “blocked” and the “NO production in response to insulin after inhibitor pre-treatment” value [3] was “blocked”.

For O=C1C[C@@H](c2ccc(O)cc2)Oc2cc(O)cc(O)c21 [naringenin], the “production of ROS in BAEC” value [2] was “stimulated”.

With TNF-α the “expression of VCAM-1 vs vehicle-treated control cells” value ([4]; TNF-α 10 ng/ml) was “increased” and the “adhesion of labeled monocytes vs vehicle-treated control cells” value ([5]; TNF-α 10 ng/ml) was “corresponding increase”.

In the case of COc1ccc([C@@H]2CC(=O)c3c(O)cc(O)cc3O2)cc1O [hesperetin], the “TNF-α-stimulated expression of VCAM-1 after hesperetin pre-treatment” value [4, 6] is reported as “substantially reduced”, the “TNF-α-stimulated adhesion of monocytes to endothelial cells after hesperetin pre-treatment” value [5, 6] is reported as “substantially reduced” and the “hesperetin-stimulated NO production in BAEC” value ([3]; DAF-2 DA, 10 min at varying concentrations or 10 μM for varying durations) is reported as “concentration- and time-dependent increase”. For the same compound, the “time of peak production of NO” value ([3]; hesperetin 10 μM, BAEC) was 5 to 10 min, the “cellular levels of phosphorylated AMPK (Thr172)” value [1, 7] was “Significant concentration-dependent effects; also recorded: acutely increased; also recorded: Significant time-dependent effects” and the “cellular levels of phosphorylated Akt (Ser473)” value [1, 7] was “Significant concentration-dependent effects; also recorded: acutely increased; also recorded: Significant time-dependent effects”. For the same compound, the “phospho-eNOS (Ser1179)” value [1, 7] was “Significant concentration-dependent effects; also recorded: increased; also recorded: Significant time-dependent effects” and the “production of ROS in BAEC” value [2] was “stimulated”.

With c1cc(-c2cnn3cc(-c4ccc(OCCN5CCCCC5)cc4)cnc23)ccn1 [Compound C] the “NO production in response to hesperetin after inhibitor pre-treatment” value ([3]; hesperetin 10 μM) was “substantially inhibited”.

With CC(C)(C)n1nc(-c2ccc(Cl)cc2)c2c(N)ncnc21 [PP2] the “NO production in response to hesperetin after inhibitor pre-treatment” value ([3]; hesperetin 10 μM) was “inhibited”, the “NO production in response to insulin after inhibitor pre-treatment” value [3] was “failed to inhibit” and the “hesperetin-stimulated phosphorylation of Src, Akt, and eNOS after PP2 pre-treatment” value ([1]; PP2 1 μM, 1 hour, hesperetin 10 μM, 10 min) was “inhibited”.
